The values below come from ChEMBL document CHEMBL1139247 (Bioorg Med Chem Lett, 2009).

Data set [1] can be described thus: Displacement of [3H]gabapentin from alpha2-delta subunit of voltage gated calcium channel in pig brain membrane. It counts as cell membranes, Sus scrofa.
Data set [2] in a line: Displacement of [3H]leucine from Large neutral amino acids transporter system L in CHO cells. It counts as cell-based, Cricetulus griseus. Background: In a radioligand displacement assay an active substance lowers the binding of a labelled ligand.
Data set [3] relates to Rattus norvegicus. As to the kind of experiment: Reduction in renal clearance in Wistar rat at 3 mg/kg, iv after 5 mins in presence of cimetidine relative to control. It counts as ADME, organism-based. Also noted: dose 3 mg/kg, route intravenous. As to conditions: in vivo.
Data set [4] in a line: Unbound fraction in rat. It counts as ADME, organism-based. The settings on record: in vivo.
For data set [5], the system named is Mus musculus. Briefly: Anxiolytic activity in DBA/2 mouse assessed as restoration of punished drinking behavior at 30 mg/kg, po relative to pregabalin. It counts as functional.
A short description of data set [6]: Bioavailability in rat. The class given is ADME, organism-based. The settings on record: in vivo.
Data set [7] can be described thus: AUC in rat. It counts as ADME, organism-based. As to conditions: plasma.
Data set [8] can be described thus: Volume of distribution at steady state in rat. The class given is ADME, organism-based. The settings on record: in vivo, read-out: Vdss.
The nature of data set [9]: Half life in rat plasma. The class given is ADME, organism-based.
Data set [10] has as its system Mus musculus. Briefly: Anticonvulsant activity in DBA/2 mouse assessed as protection from audiogenically-induced tonic seizures at 30 mg/kg, po after 1 hr. The class given is functional.
Data set [11] concerns Rattus norvegicus. As to the kind of experiment: Reduction in renal clearance in Wistar rat at 3 mg/kg, iv after 5 mins in presence of probenecid relative to control. The class given is ADME, organism-based. Also noted: dose 3 mg/kg, route intravenous. As to conditions: in vivo.
The nature of data set [12]: Plasma concentration in Sprague-Dawley rat at 30 mg/kg, po after 2 hrs. It counts as ADME, organism-based. Also noted: dose 30 mg/kg, route oral.
Data set [13] can be described thus: Clearance in rat. The class given is ADME, organism-based. As to conditions: in vivo.
Data set [14] in a line: Drug level in Sprague-Dawley rat brain at 30 mg/kg, po after 2 hrs.

pIC50: −log10 of the molar value. Some results are limits rather than exact numbers.

One may read the pIC50 as the IC50 on a negative log10 scale, so that one unit is a factor of ten. Turning to `C[C@@H]1C[C@H](C)C[C@](CN)(Cc2noc(=O)[nH]2)C1`, the pIC50 in [1] is below 5.00.

As to `NCC1(Cc2noc(=O)[nH]2)CCCC1`, the pIC50 in data set [1] is 5.94.

Regarding `NCC1(Cc2nnn[nH]2)CCCCC1`, the pIC50 in data set [1] is 7.00; in data set [2], below 2.00.

As for `NCC1(Cc2noc(=O)[nH]2)CCCCCC1`, the pIC50 in data set [1] was 6.80.

Consider `Cn1c(CC2(CN)CCCCC2)noc1=O`, for which the pIC50 in data set [1] is below 5.00.

For orientation: fraction unbound means the share of the substance not bound to proteins or other matrix. Broadly, the bioavailability is dose-corrected exposure relative to a reference, in per cent. Higher therefore signals much systemic uptake. For orientation: AUC means concentration integrated over time. Read a low AUC as less exposure. The half-life is how long it takes for the measured level to halve. Low values mean rapid decline, high ones slow decline. Broadly, the clearance is the rate of elimination divided by the concentration. Low readings indicate inefficient removal, high ones efficient removal. Turning to `NCC1(Cc2noc(=O)[nH]2)CCCCC1`, the “reduction in CL_renal” value in data set [3] worked out at 35%; in data set [11], 57%. Moreover, the fraction unbound in data set [4] was above 0.9. The Activity in [5] was found to be 11%; in [10], 20%. Also, the bioavailability in data set [6] stood at 97%. For the same compound, in data set [2], the pIC50 is below 2.00. In data set [7], the AUC was found to be 2200 ng·h/mL. In data set [8], the Vd was determined as 1.25 L/kg. For the same compound, the half-life in data set [9] was 1.6 h. The concentration at 2 h in data set [12] is 15000 ng/mL. For the same compound, in data set [13], the clearance was found to be 20.3 mL/min/kg.

Consider `NCC1(Cc2noc(=O)[nH]2)CCCCCCC1`, for which the negative logarithm of the IC50 (pIC50) in data set [1] was 5.25.

On to `CC(C)C[C@H](CN)CC(=O)O` [PREGABALIN], for which the Activity in data set [5] and in data set [10] was 100% throughout. The bioavailability in [6] was 83%. Also, the pIC50 in [2] was 3.80. The compound also had an AUC in data set [7] of 14800 ng·h/mL. Also, in data set [8], the Vd came to 0.79 L/kg. The concentration at 2 h in data set [14] was 7360 ng/mL; in data set [12], 25600 ng/mL. Besides, the half-life in data set [9] was 2.7 h. In data set [13], this compound displayed a clearance of 2.9 mL/min/kg.

In the case of `C[C@@H]1CCC[C@@](CN)(Cc2noc(=O)[nH]2)C1`, in data set [1], the negative logarithm of the IC50 (pIC50) was 7.08.

As to `C[C@@H]1C[C@H](C)C[C@@](CN)(Cc2noc(=O)[nH]2)C1`, the pIC50 in [1] is 7.15.

As to `NCC1(CC(=O)O)CCCCC1` [GABAPENTIN], the Activity in data set [5] is 60%; in data set [10] it was 100%. Further, the pIC50 was 7.15 in data set [1] and 4.52 in data set [2]. Also, in data set [9], the half-life was 1.5 h.

For `CC(C)CC(CN)Cc1noc(=O)[nH]1` (racemic), the pIC50 in [1] is 5.82.

As to `Cn1nnnc1CC1(CN)CCCCC1`, in [1], the pIC50 is below 5.00.
